The text below walks through data of ChEMBL document CHEMBL1201862, “PubChem BioAssay data set” (2004).

Holding throughout (assay): NCI anticancer screen, dose series, 48 h
Test [1] has as its system CCRF-CEM.
Test [2] relates to OVCAR-3.
The subject of test [3] is Malme-3M.
The test system of test [4] is UACC-257.
Test [5] has as its system K562.
The subject of test [6] is DU-145.
The subject of test [7] is TK-10.
Test [8] concerns HCT-15.
Test [9] deals with HT-29.
Test [10] concerns PC-3.
In test [11] the test system is CAKI-1.
Test [12] deals with HCT-116.
Test [13] has as its system OVCAR-5.
The test system of test [14] is SR.
In test [15] the test system is SK-MEL-28.
Test [16] relates to HOP-92.
Test [17] relates to A549.
In test [18] the test system is OVCAR-4.
The test system of test [19] is MOLT-4.
The test system of test [20] is SF-295.

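Assay format: 96-well plates, 48-hour exposure. The concentration for 50% growth inhibition is given as GI50.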 The source made the active and inactive calls. Cut-off read from the data, not from the text of the source: active = GI50 up to about 1.1 µM and inactive = higher.

With `CS(=O)(=O)Nc1ccc(Nc2c3ccccc3nc3ccccc23)cc1`, the GI50 in [1] is 0.459 µM (active); in test [2], 4.93 µM (inactive); in test [3], 2.15 µM (inactive); in test [4] it was 1.36 µM (inactive); in test [5] it was 2.23 µM (inactive); in test [6], 0.355 µM (active). The GI50 in [7] was 2.57 µM (inactive); in test [8], 2.31 µM; in test [9], 4.4 µM (inactive); in test [10], 2.62 µM (inactive); in [11] it was 0.491 µM (active); in test [12], 1.83 µM (inactive). For the same compound, the GI50 in test [13] is 4.39 µM (inactive); in test [14] it was 0.0789 µM (active); in test [15], 4.75 µM (inactive); in test [16], 4.78 µM (inactive); in [17] it was 0.325 µM (active); in [18] it was 4.17 µM (inactive). Besides, the values for the GI50 in [19] and in test [20] were 0.0873 µM (active) and 1.66 µM (inactive), respectively.
Consider `C=C1CC2(OC1=O)c1ccccc1CCc1ccccc12`, for which the GI50 in test [1] is 0.627 µM (active); in test [2], 1.89 µM (inactive); in [3], 1.94 µM (inactive); in [4] it was 3.82 µM (inactive); in test [5], 1.71 µM (inactive); in test [6], 18.7 µM (inactive). Also, the GI50 in [7] is 2.84 µM (inactive); in test [8] it was 1.91 µM; in test [9], 1.84 µM (inactive); in test [10] it was 14.3 µM (inactive); in [11], 1.75 µM (inactive); in test [12], 1.44 µM (inactive). Besides, the GI50 is 14.5 µM (inactive) in [13]; 0.497 µM (active) in test [14]; 1.81 µM (inactive) in test [15]; 1.72 µM (inactive) in [16]; 8.26 µM (inactive) in [17]; 1.93 µM (inactive) in test [18]. Moreover, the GI50 was 2.43 µM (inactive) in test [19] and 16.1 µM (inactive) in test [20].
On to `C=CC(C)(C)n1cc(C2=C3OC(=O)C(c4cn(C(C)(C)C=C)c5ccccc45)=C3OC2=O)c2ccccc21`, for which the GI50 in test [1], in test [2], in test [3], in [4], in test [5] and in [6] was > 100 µM (inactive) in each case. Further, the GI50 was > 100 µM (inactive) in test [7]; over 100 µM in [8]; > 100 µM (inactive) in [9]; > 100 µM (inactive) in test [10]; > 100 µM (inactive) in [11]; > 100 µM (inactive) in test [12]. Moreover, the GI50 in test [13], in test [14], in test [15], in test [16], in [17] and in test [18] was > 100 µM (inactive) in each case. The GI50 in [19] and in test [20] was > 100 µM (inactive) in each case.
As to `O=C1N[C@H]2c3c(Cl)sc(Cl)c3C(=O)[C@H]2O1`, the GI50 in test [1] is 2.58 µM (inactive); in [2], 17.3 µM (inactive); in test [3] it was 10.1 µM (inactive); in [4], 16.8 µM (inactive); in [5], 2.99 µM (inactive); in test [6], 23.4 µM (inactive). The GI50 was 64.1 µM (inactive) in test [7]; 2.38 µM in test [8]; 4.38 µM (inactive) in test [9]; 18.2 µM (inactive) in test [10]; 17.8 µM (inactive) in test [11]; 3.64 µM (inactive) in test [12]. In addition, the GI50 was 22.1 µM (inactive) in test [13]; 2.09 µM (inactive) in test [14]; 6.79 µM (inactive) in test [15]; 18.5 µM (inactive) in test [16]; 36.8 µM (inactive) in test [17]; 21.9 µM (inactive) in test [18]. Besides, the GI50 in [19] is 2.01 µM (inactive); in [20], 18.8 µM (inactive).
On to `CCCc1nnc2sc(COc3cc(Cl)c(OCc4nn5c(CCC)nnc5s4)cc3Cl)nn12`, for which the GI50 is 15.6 µM (inactive) in [1]; 24.8 µM (inactive) in test [2]; 25.9 µM (inactive) in test [3]; 34.1 µM (inactive) in [4]; 0.596 µM (active) in test [5]; 47 µM (inactive) in test [6]. Moreover, the GI50 in test [7] is 52 µM (inactive); in test [8] it was 0.904 µM; in test [9], 53 µM (inactive); in test [10] it was > 100 µM (inactive); in [11], 38.5 µM (inactive); in test [12], 46 µM (inactive). The GI50 in test [13] was > 100 µM (inactive); in test [14], 0.046 µM (active); in test [15] it was 5.66 µM (inactive); in test [16], 22 µM (inactive); in test [17], 35.2 µM (inactive); in [18], 22.5 µM (inactive). Moreover, the GI50 in [19] is 0.4 µM (active); in test [20] it was 28.6 µM (inactive).
On to `CS(=O)(=O)c1ccc(NNc2cc(=O)[nH]c(=O)[nH]2)cc1`, for which the GI50 in test [1], in test [2], in test [3], in [4], in [5] and in [6] was > 100 µM (inactive) each time. In addition, the GI50 in [7] was 0.0155 µM (active); in [8], over 100 µM; in test [9] it was > 100 µM (inactive); in [10], > 100 µM (inactive); in test [11] it was > 10 µM (inactive); in test [12], > 100 µM (inactive). Besides, the GI50 in test [13] was > 100 µM (inactive); in [14], > 100 µM (inactive); in [15] it was > 100 µM (inactive); in test [16] it was 47.8 µM (inactive); in [17] it was > 100 µM (inactive); in test [18], > 100 µM (inactive). Also, the GI50 in test [19] and in [20] was > 100 µM (inactive) throughout.
With `CCCCCCCC(CC(=O)NC(CO)C(=O)NC(CO)CC(C)C)OC(=O)CC(CCCCCCC)OC(=O)CC(CCCCCCC)OC1OC(C)C(O)C(OC2OC(C)C(O)C(O)C2O)C1O` (stereo not given), the GI50 in test [1] is 3.37 µM (inactive); in test [2], 13.9 µM (inactive); in [3] it was 9.66 µM (inactive); in test [4], 12.3 µM (inactive); in [5] it was 5.12 µM (inactive); in [6] it was 12.6 µM (inactive). Further, the GI50 was 16.5 µM (inactive) in [7]; 19.7 µM in test [8]; 9.16 µM (inactive) in test [9]; 12.7 µM (inactive) in test [10]; 18.4 µM (inactive) in [11]; 7.53 µM (inactive) in test [12]. The GI50 in test [13] was 13.1 µM (inactive); in test [14], 3.05 µM (inactive); in test [15], 7.94 µM (inactive); in [16], 12 µM (inactive); in test [17] it was 15.8 µM (inactive); in test [18], 12.6 µM (inactive). The GI50 is 3.06 µM (inactive) in test [19] and 14 µM (inactive) in [20].
As for `Cc1c2ccccc2c(C2C3C(=O)N(c4cccc5ccccc45)C(=O)C3ON2Cc2ccc(CC(N)=O)cc2)c2ccccc12` (stereo not given), the GI50 in [1] is 14.7 µM (inactive); in test [2] it was 18.8 µM (inactive); in [3] it was 28.6 µM (inactive); in [4], 12.2 µM (inactive); in test [5], 15.7 µM (inactive); in test [6], 18.9 µM (inactive). Moreover, the GI50 was 16.7 µM (inactive) in test [7]; 18.4 µM in test [8]; 10.2 µM (inactive) in test [9]; 17.4 µM (inactive) in [10]; 29.3 µM (inactive) in test [11]; 18.2 µM (inactive) in test [12]. Moreover, the GI50 in [13] was 24.9 µM (inactive); in test [14] it was 14 µM (inactive); in test [15], > 50 µM (inactive); in test [16], 15.6 µM (inactive); in test [17] it was 16.3 µM (inactive); in test [18] it was 19 µM (inactive). In addition, the figures for the GI50 in [19] and in [20] were 8.24 µM (inactive) and 16.3 µM (inactive), respectively.
On to `c1ccc2c(c1)N=c1ccccc1=P21c2ccccc2Nc2ccccc21`, for which the GI50 in test [1] is 0.174 µM (active); in test [2], 0.301 µM (active); in test [3], 0.242 µM (active); in [4], 0.39 µM (active); in [5] it was 0.202 µM (active); in test [6], 0.388 µM (active). Also, the GI50 is 0.998 µM (active) in test [7]; 17.2 µM in [8]; 0.0724 µM (active) in test [9]; 0.242 µM (active) in test [10]; 2.4 µM (inactive) in test [11]; 0.242 µM (active) in test [12]. The GI50 in test [13] is 0.421 µM (active); in test [14], 0.31 µM (active); in test [15], 0.986 µM (active); in [16] it was 0.332 µM (active); in [17], 0.232 µM (active); in test [18], 0.601 µM (active). The GI50 in test [19] was 0.3 µM (active); in test [20] it was 0.942 µM (active).
In the case of `CCCCNC(=O)OCCN=c1c2ccccc2ccc2ccccc12`, the GI50 in test [1], in test [2], in [3], in test [4], in [5] and in [6] was > 100 µM (inactive) throughout. Further, the GI50 in test [7] was > 100 µM (inactive); in [8] it was over 100 µM; in test [9], > 100 µM (inactive); in [10] it was > 100 µM (inactive); in test [11], > 100 µM (inactive); in test [12], > 100 µM (inactive). The GI50 in test [13], in test [14], in test [15], in [16], in test [17] and in test [18] was > 100 µM (inactive) in each case. Also, the GI50 in test [19] and in test [20] was > 100 µM (inactive) each time.
